Patent publication EP0873397B1, “NOVEL MICROORGANISM AND METHOD FOR ENVIRONMENTAL PURIFICATION USING THE SAME” (priority 1996, dated 1998)

Assay: Analysis of byproducts in soil after trichloroethylene decomposition by UV-sterilized bacterial mass
Description: After plating the suspension of the bacterial mass onto a petri dish to a thickness of about 1 mm, and then sterilized under irradiation of a 15 W ultra violet lamp with a wavelength of 260 nm for not less than 60 seconds at a distance of 40 cm from the light source.
After that, trichloroethylene in the soil was allowed to be decomposed and the byproducts which is believed to be formed in association with trichloroethylene decomposition were analyzed in a similar manner to Example 13. Furthermore, in an experiment in which the suspension of sterilized bacterial mass at an amount of 1/100 of that of the NYG medium was inoculated or the suspension was plated as it was onto the NYG agar medium and cultured at 30°C, neither increase in turbidity of the culture liquid nor colony formation were observed, and thereby it was confirmed that there was complete sterilization.

Compound: OCC(Cl)(Cl)Cl [Trichloroethanol]
- Result (byproduct in the soil): Not detected
